Measured values from patent publication US20250282761A1, “SALT AND CRYSTAL FORMS OF AN EPIDERMAL GROWTH FACTOR RECEPTOR INHIBITOR” (Blueprint Medicines Corporation, priority 2022, published 2025).
Structures can show the parent of a compound that is named as a salt.

Test: Pharmacokinetics following oral (PO) administration to male beagle dogs
Assay type: in vivo
Conditions: single 30 mg/kg PO (free base equivalent)
Protocol: Male beagle dogs (3 in each treatment group) were administered orally 30 mg/kg of Compound (I) free base or mesylate salt of Compound (I) in a dose equivalent to 30 mg/kg of free base. The free base and the mesylate salt were suspended/dissolved in an appropriate volume of vehicle solution containing 0.5% hydroxypropyl methylcellulose (w/v) with 0.2% Tween 80 (v/v) in deionized water. The PO doses were administered into the stomach via syringe and gavage tube followed by a 5 mL water flush. Dose volumes were adjusted for the weight of the animal on the morning of dose administration. Blood samples were collected at 0, 0.5, 1, 2, 4, 6, 8, 10, 12, and 24 h postdose from an accessible vein with preference to the jugular vein. Blood samples were kept on ice until processing. All blood samples were centrifuged within 1 h of collection at 3200 RPM for 10 min at 5° C. Plasma samples were directly transferred into cluster tubes and stored at −20°±5° C. until shipment. […] Animals were fasted on the evening prior to dosing with food returned at 4 h postdose.

| Compound | appearance of animals at dose administration and blood collection time points | in vivo exposure (plasma concentration, FIG. 7) (0-24 h) |
| --- | --- | --- |
| C=CC(=O)Nc1ccc(F)c(Nc2nc(Nc3cnn(C)c3)ncc2-c2ccc(C(F)(F)F)cc2)c1 [Compound (I) free base, N-(4-fluoro-3-((2-((1-methyl-1H-pyrazol-4-yl)amino)-5-(4-(trifluoromethyl)phenyl)pyrimidin-4-yl)amino)phenyl)acrylamide] | appeared normal | – |
| C=CC(=O)Nc1ccc(F)c(Nc2nc(Nc3cnn(C)c3)ncc2-c2ccc(C(F)(F)F)cc2)c1 [mesylate salt of Compound (I)] | – | higher in vivo exposure |
